“And” between values parts separate entries of the source, which are not always exact repeats. Equal entries are not always repeated. Where two headings read alike, the source gives them in different places.
Assays:
[1] = system: A549 (lung carcinoma); assay: MTT cytotoxicity assay, A549; assay type: cell-based; settings: Homo sapiens; for cytotoxicity at 100 µg/mL: read-out: (%) Mortality A549; for IC50: 48 hour incubation
Description: (§6) Using specific human cancer cell lines, the anti-proliferative effectiveness of compounds 7a–j was evaluated in an in vitro assay. The anti-cancer activity of these compounds (7a–j) on various cancer cell lines, including PC3 (Prostate cell line), A549 (Lung carcinoma), PACA2 (Pancreatic cancer cell line) and BJ1 (normal skin fibroblast), was investigated in this study using the 3-(4,5-dimethylthiazol-2-yl)-2,5-diphenyltetrazolium bromide (MTT) test. Doxorubicin (Dox) was the standard medication used as a positive control.
(§7) In the initial screening trial, a single dosage concentration of 100 μg ml^−1 was applied for 48 hours. The cytotoxicity of the treated cells was determined by calculating the cell death percentage (% mortality) as a percentage of untreated cells (Table 2).
(§8) All incubations were performed at 37 °C in a 5% CO2 incubator with a 95% humidified environment (Sheldon, TC2323; Cornelius, OR, USA). 96-well micro titer polypropylene plates were seeded with cells at a density of 10^4 cells per well in complete DMEM media, and the cells were allowed to adhere for 24 hours. After the media was aspirated, the tested compounds were added to the cells in a single dose of 100 μg ml^−1 in DMSO. Each well received 40 μl of MTT salt (2.5 g ml^−1) following a 48 hour incubation period. 200 μl of 10% sodium dodecyl sulfate (SDS) was added to each well after the reaction ended, and any formazan crystals that could have been produced were dissolved by two hours of incubator heating to 37 °C. The amount of formazan product was measured at 595 nm using a microplate reader (Bio-Rad Laboratories, model 3350, California, USA) with a reference wavelength of 690 nm, serving as a backdrop. Rather than the drugs under investigation, the medium was applied to the untreated cells (negative control). The examined compounds were dissolved in dimethylsulfoxide (DMSO), and the final concentration in the cells was less than 0.2%. For each compound and the control, the solvent concentration was the same.

[2] = system: p53 gene expression in lung cancer cell lines; assay: qRT-PCR gene expression, p53; assay type: cell-based, human; settings: treated lung cancer cell line vs negative control; order 7g, Dox, 7a
Description: (§1) The RNeasy Mini Kit (Qiagen, Hilden, Germany), augmented with a DNaseI (Qiagen) digestion step, was employed to extract total RNA from lung cancer cell lines following the manufacturer's procedure. The isolated total RNA was treated with one unit of RQ1 RNAse-free DNAse (Invitrogen, Germany) to eliminate DNA remnants, re-suspended in DEPC-treated water, and quantified photometrically at 260 nm. The purity of total RNA was evaluated using the 260/280 nm ratio, which ranged from 1.8 to 2.1.[27]
(§2) Furthermore, integrity was confirmed using ethidium bromide-stained examination of 28S and 18S bands via formaldehyde-containing agarose gel electrophoresis. Aliquots were utilized immediately for reverse transcription (RT); otherwise, they were preserved at −80 °C.
(§3) The poly(A) + RNA extracted from the lung cancer cell lines was reverse transcribed into the cDNA in a total amount of 20 μl utilizing the Revert Aid TM First Strand cDNA Synthesis Kit (Fermentas, Germany). A total of 5 μg of RNA was utilized with a master mix. The master mix comprised 50 mM MgCl2, 10× RT buffer (50 mM KCl; 10 mM Tris–HCl; pH 8.3), 10 mM of each dNTP, 50 μM oligo-dT primer, 20 IU ribonuclease inhibitor (50 kDa recombinant enzyme to suppress RNase activity), and 50 IU MuLV reverse transcriptase. Each sample mixture was centrifuged for 30 seconds at 1000 g and thereafter transferred to the thermocycler. The RT reaction was conducted at 25 °C for 10 minutes, subsequently at 42 °C for 1 hour, and concluded with a denaturation phase at 99 °C for 5 minutes. Subsequently, the reaction tubes containing RT-prepared samples were rapidly chilled in an ice chamber prior to cDNA amplification via the quantitative real-time polymerase chain reaction (qRT-PCR).
(§4) The cDNA copy number of lung cancer cell lines was determined using the StepOne™ Real-Time PCR System from Applied Biosystems (Thermo Fisher Scientific, Waltham, MA, USA). […]
(§5) The reaction protocol was divided into three stages. […] The relative quantification of the target gene to the reference gene was assessed using the 2^−ΔΔCT method.[29–31]

[3] = system: PC3 (prostate cell line); assay: MTT cytotoxicity assay, PC3; assay type: cell-based; settings: Homo sapiens, read-out: (%) Mortality PC3
Description: as §6, §7, §8

[4] = system: lung cancer cell lines (A549); assay: DNA fragmentation assay (diphenylamine reaction); assay type: cell-based, human; settings: for DNA fragmentation Change: change vs negative control; for DNA fragmentation% (M ± SEM): negative control 12.54 ± 0.45
Description: The DNA fragmentation assay in lung cancer cell lines was performed in accordance with the protocol established by Yawata (1998)[34] with some modifications. […] The low-molecular-weight genomic DNA was extracted as described in Yawata (1998).[34] Approximately 1 × 10^6 cells of each treatment were plated. All the cells (including floating cells) were harvested and washed with Dulbecco's phosphate buffered saline. The cancer cells were lysed with the lysis buffer containing 10 mM Tris (pH 7.4), 150 mM NaCl, 5 mM ethylenediaminetetraacetic acid (EDTA), and 0.5% Triton X-100 for 30 min on ice. Lysates were vortexed and cleared by centrifugation at 10 000 g for 20 min. Fragmented DNA in the supernatant was extracted with an equal volume of a neutral phenol : chloroform : isoamyl alcohol mixture (25 : 24 : 1) and analyzed electrophoretically on 2% agarose gels containing 0.1 μg ml^−1 ethidium bromide.
The lung cancer cell lines (A549) were used to determine the quantitative profile of the DNA fragmentation. […] The cancer cells were lysed in 0.5 ml of lysis buffer containing 10 mM Tris–HCl (pH 8), 1 mM EDTA, and 0.2% Triton X-100 and centrifuged at 10 000 rpm (Eppendorf) for 20 min at 4 °C. The pellets were re-suspended in 0.5 ml of lysis buffer. To the pellets (P) and the supernatants (S), 0.5 ml of 25% tri-chloroacetic acid (TCA) was added and incubated at 4 °C for 24 h. The cells were then centrifuged for 20 min at 10 000 rpm (Eppendorf) at 4 °C and the pellets were suspended in […] of 5% TCA, followed by incubation at 83 °C for 20 min. Subsequently, to each cell sample, […] of diphenylamine (DPA) solution [150 mg DPA in 10 ml glacial acetic acid, […] of sulfuric acid and […] acetaldehyde (16 mg ml^−1)] was added and incubated at room temperature for 24 h (Gibb et al.,[35] 1997). The proportion of the fragmented DNA was calculated from the absorbance values at 600 nm wavelength using the formula:% fragmented DNA = [OD(S)/[OD(S) + OD(P)]] × 100(OD: optical density, S: supernatants, P: pellets).

[5] = system: PACA2 (pancreatic cancer cell line); assay: MTT cytotoxicity assay, PACA2; assay type: cell-based; settings: Homo sapiens; for cytotoxicity at 100 µg/mL: read-out: (%) Mortality PACA2
Description: as §6, §7, §8

[6] = system: BAX gene expression in lung cancer cell lines; assay: qRT-PCR gene expression, BAX; assay type: cell-based, human; settings: treated lung cancer cell line vs negative control; order 7g, Dox, 7a
Description: as §1, §2, §3, §4, §5

[7] = A549, 100 μg ml^−1, 48 hours, MTT
[8] = PaCa-2, 100 μg ml^−1, 48 hours, MTT

| Compound | cytotoxicity at 100 µg/mL [1, 7] | IC50 ([1]; A549, MTT) | p53 (pro-apoptotic gene) expression level [2] | cytotoxicity at 100 µg/mL ([3]; 100 μg ml^−1, 48 hours, MTT) | DNA fragmentation Inhibition% [4] | DNA fragmentation Change [4] | DNA fragmentation% (M ± SEM) [4] | cytotoxicity at 100 µg/mL [5, 8] | BAX (pro-apoptotic gene) expression level [6] | cytotoxicity at 100 µg/mL ([1]; A549, 48 h) | cytotoxicity at 100 µg/mL ([3]; 48 h) | cytotoxicity at 100 µg/mL ([5]; PaCa-2, 48 h) | IC50 ([5]; PaCa-2, MTT, 48 hour incubation) |
| --- | --- | --- | --- | --- | --- | --- | --- | --- | --- | --- | --- | --- | --- |
| Cc1nn2c(C)nn(-c3ccc([N+](=O)[O-])cc3)c2nc1=O [Compound 7a, 3,6-Dimethyl-1-(4-nitrophenyl)-[1,2,4]triazolo[4,3-b][1,2,4]triazin-7(1H)-one] | 80.4 ± 0.66% | 36.6 µM | elevated | 28.2 ± 0.25% | 27.78% | 20.24 | 32.78 ± 1.35% and 32.78 ± 1.35^a % | 20.4 ± 0.11% | elevated |  |  |  |  |
| COc1ccc(-c2nn(-c3ccccc3)c3nc(=O)c(C)nn23)cc1 [Compound 7g, 3-(4-Methoxyphenyl)-6-methyl-1-phenyl-[1,2,4]triazolo[4,3-b][1,2,4]triazin-7(1H)-one] | 82.3 ± 0.82% | 40.1 µM | elevated | 14.6 ± 0.92% | 17.74% | 13.03 | 25.57 ± 0.94% and 25.57 ± 0.94^b % | 13.4 ± 1.15% | elevated |  |  |  |  |
| COc1cccc2c1C(=O)c1c(O)c3c(c(O)c1C2=O)C[C@@](O)(C(=O)CO)C[C@@H]3O[C@H]1C[C@H](N)[C@H](O)[C@H](C)O1 [Dox, Doxorubicin, reference compound] |  | 43.8 µM | elevated |  | 19.69% | 15.84 |  |  | elevated | 100% | 100% | 100% | 52.1 µM |
